PubChem BioAssay (NCI)
Where “and” joins values, the source holds several entries; their conditions need not be identical. Equal values may be shown once.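 Each compound was tested at five concentrations against cells in 96-well plates for 48 hours. At the GI50, growth is halved. TGI is the concentration that stops growth completely.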

Assays:
Experiment in all cases: NCI-60 cell line screen, 48 h
UO-31 renal = test system: UO-31 renal
OVCAR-8 ovarian = test system: OVCAR-8 ovarian
CAKI-1 renal = test system: CAKI-1 renal
SR leukemia = test system: SR leukemia
SNB-19 CNS = test system: SNB-19 CNS
OVCAR-5 ovarian = test system: OVCAR-5 ovarian
SF-295 CNS = test system: SF-295 CNS
SN12C renal = test system: SN12C renal
SK-MEL-2 melanoma = test system: SK-MEL-2 melanoma
A549 NSCLC = test system: A549 NSCLC
HS 578T breast = test system: HS 578T breast
786-0 renal = test system: 786-0 renal
M14 melanoma = test system: M14 melanoma
DU-145 prostate = test system: DU-145 prostate
HCT-116 colon = test system: HCT-116 colon
CCRF-CEM leukemia = test system: CCRF-CEM leukemia
OVCAR-4 ovarian = test system: OVCAR-4 ovarian
HCT-15 colon = test system: HCT-15 colon
LOX IMVI melanoma = test system: LOX IMVI melanoma
NCI-H226 lung = test system: NCI-H226 lung
HL-60(TB) leukemia = test system: HL-60(TB) leukemia
SK-OV-3 ovarian = test system: SK-OV-3 ovarian
IGROV1 ovarian = test system: IGROV1 ovarian
MALME-3M melanoma = test system: MALME-3M melanoma
SW-620 colon = test system: SW-620 colon
EKVX NSCLC = test system: EKVX NSCLC
SF-539 CNS = test system: SF-539 CNS
MDA-MB-231 breast = test system: MDA-MB-231 breast
COLO 205 colon = test system: COLO 205 colon
RXF 393 renal = test system: RXF 393 renal
UACC-62 melanoma = test system: UACC-62 melanoma
K-562 leukemia = test system: K-562 leukemia
HCC-2998 colon = test system: HCC-2998 colon
KM12 colon = test system: KM12 colon
HOP-92 NSCLC = test system: HOP-92 NSCLC
HOP-62 NSCLC = test system: HOP-62 NSCLC
NCI-H522 lung = test system: NCI-H522 lung
MOLT-4 leukemia = test system: MOLT-4 leukemia
SK-MEL-28 melanoma = test system: SK-MEL-28 melanoma
T-47D breast = test system: T-47D breast
RPMI-8226 leukemia = test system: RPMI-8226 leukemia
SK-MEL-5 melanoma = test system: SK-MEL-5 melanoma
PC-3 prostate = test system: PC-3 prostate
HT29 colon = test system: HT29 colon
MDA-MB-435 = test system: MDA-MB-435
UACC-257 melanoma = test system: UACC-257 melanoma
SF-268 CNS = test system: SF-268 CNS
MCF7 breast = test system: MCF7 breast
SNB-75 CNS = test system: SNB-75 CNS
BT-549 breast = test system: BT-549 breast
A498 renal = test system: A498 renal
U251 CNS = test system: U251 CNS
NCI-H23 lung = test system: NCI-H23 lung
TK-10 renal = test system: TK-10 renal
NCI-H460 lung = test system: NCI-H460 lung
OVCAR-3 ovarian = test system: OVCAR-3 ovarian
NCI/ADR-RES ovarian = test system: NCI/ADR-RES ovarian
ACHN renal = test system: ACHN renal

`COc1cc(O)c2c(c1)/C=C/C[C@H](O)[C@H](O)C(=O)/C=C\C[C@H](C)OC2=O` was tested, and the GI50 (UO-31 renal) was 0.237 µM and 0.326 µM, the TGI (UO-31 renal) was 5.42 µM and 11.9 µM and the GI50 (OVCAR-8 ovarian) was 1.44 µM and 2.87 µM. For the same compound, the TGI (OVCAR-8 ovarian) was 7.22 µM and 14.6 µM, the GI50 (CAKI-1 renal) was 0.514 µM and 0.403 µM and the TGI (CAKI-1 renal) was 6.31 µM and 12.7 µM. The GI50 (SR leukemia) was 0.358 µM and 0.671 µM, the TGI (SR leukemia) was 5.94 µM and 6.49 µM and the GI50 (SNB-19 CNS) was 5.71 µM and 14.9 µM. The TGI (SNB-19 CNS) was 23.5 µM and 73.3 µM, the GI50 (OVCAR-5 ovarian) was 3.61 µM and 4.27 µM and the TGI (OVCAR-5 ovarian) was 10.3 µM and 22.6 µM. For the same compound, the GI50 (SF-295 CNS) was 4.32 µM and 18.6 µM, the TGI (SF-295 CNS) was 11.1 µM and 45 µM and the GI50 (SN12C renal) was 1.35 µM and 4.12 µM. For the same compound, the TGI (SN12C renal) was 9.17 µM and 23.7 µM, the GI50 (SK-MEL-2 melanoma) was 2.61 µM and 2.81 µM and the TGI (SK-MEL-2 melanoma) was 9.12 µM and 13.7 µM. For the same compound, the GI50 (A549 NSCLC) was 4.77 µM and 34.8 µM, the TGI (A549 NSCLC) was 33.5 µM and > 100 µM and the GI50 (HS 578T breast) was 3.91 µM and 2.72 µM. The TGI (HS 578T breast) was 28.5 µM and 13.1 µM, the GI50 (786-0 renal) was 3.88 µM and 3.81 µM and the TGI (786-0 renal) was 8.49 µM and 15.8 µM. For the same compound, the GI50 (M14 melanoma) was 0.022 µM and 0.05 µM, the TGI (M14 melanoma) was 1.42 µM and 10.3 µM and the GI50 (DU-145 prostate) was 2.09 µM and 5.28 µM. For the same compound, the TGI (DU-145 prostate) was 13.8 µM and 18.6 µM, the GI50 (HCT-116 colon) was 0.515 µM and 0.601 µM and the TGI (HCT-116 colon) was 3.66 µM and 10 µM. For the same compound, the GI50 (CCRF-CEM leukemia) was 1.01 µM and 2.42 µM, the TGI (CCRF-CEM leukemia) was 11.4 µM and 9.13 µM and the GI50 (OVCAR-4 ovarian) was 3.55 µM and 2.52 µM. For the same compound, the TGI (OVCAR-4 ovarian) was 33.5 µM and 23.3 µM, the GI50 (HCT-15 colon) was 0.618 µM and 2.17 µM and the TGI (HCT-15 colon) was 4.64 µM and 12.4 µM. For the same compound, the GI50 (LOX IMVI melanoma) was 0.477 µM and 1.04 µM, the TGI (LOX IMVI melanoma) was 3.59 µM and 4.44 µM and the GI50 (NCI-H226 lung) was 5.45 µM. The TGI (NCI-H226 lung) was 33.5 µM, the GI50 (HL-60(TB) leukemia) was 0.218 µM and 0.205 µM and the TGI (HL-60(TB) leukemia) was 4.27 µM and 2.55 µM. For the same compound, the GI50 (SK-OV-3 ovarian) was 5.73 µM and 17.9 µM, the TGI (SK-OV-3 ovarian) was 21.6 µM and 80.3 µM and the GI50 (IGROV1 ovarian) was 3.74 µM and 2.64 µM. The TGI (IGROV1 ovarian) was 16.9 µM and 20.9 µM, the GI50 (MALME-3M melanoma) was 0.00579 µM and 0.0157 µM and the TGI (MALME-3M melanoma) was 0.0926 µM and 0.0572 µM. The GI50 (SW-620 colon) was 0.224 µM and 0.469 µM, the TGI (SW-620 colon) was 8.33 µM and 10.3 µM and the GI50 (EKVX NSCLC) was 3.01 µM and 15.3 µM. The TGI (EKVX NSCLC) was 10.7 µM and 52.2 µM, the GI50 (SF-539 CNS) was 1.92 µM and 3.12 µM and the TGI (SF-539 CNS) was 6.89 µM and 15.3 µM. The TGI (MDA-MB-231 breast) was 7.26 µM and 27 µM, the GI50 (COLO 205 colon) was 0.0614 µM and 0.194 µM and the TGI (COLO 205 colon) was 3.98 µM and 12 µM. The GI50 (RXF 393 renal) was 1.07 µM and 2.01 µM, the TGI (RXF 393 renal) was 5.7 µM and 7.21 µM and the GI50 (UACC-62 melanoma) was 0.0173 µM and 0.113 µM. For the same compound, the TGI (UACC-62 melanoma) was 2.89 µM and 9.52 µM, the GI50 (K-562 leukemia) was 1.11 µM and 2.15 µM and the TGI (K-562 leukemia) was 27 µM and 12.3 µM. For the same compound, the GI50 (HCC-2998 colon) was 2.46 µM and 9.46 µM, the TGI (HCC-2998 colon) was 7.09 µM and 23.3 µM and the GI50 (KM12 colon) was 1.54 µM and 5.53 µM. The TGI (KM12 colon) was 6.87 µM and 24.8 µM, the GI50 (HOP-92 NSCLC) was 0.165 µM and 0.223 µM and the TGI (HOP-92 NSCLC) was 3.1 µM and 0.973 µM. For the same compound, the GI50 (HOP-62 NSCLC) was 4.14 µM and 14.5 µM, the TGI (HOP-62 NSCLC) was 10.9 µM and 40.2 µM and the GI50 (NCI-H522 lung) was 0.357 µM and 2.05 µM. For the same compound, the TGI (NCI-H522 lung) was 4.01 µM and 12.7 µM, the GI50 (MOLT-4 leukemia) was 0.763 µM and 2.25 µM and the TGI (MOLT-4 leukemia) was 3.75 µM and 8 µM. The GI50 (SK-MEL-28 melanoma) was 0.0148 µM and 0.0458 µM, the TGI (SK-MEL-28 melanoma) was 3.52 µM and 1.04 µM and the GI50 (T-47D breast) was 1.18 µM and 2.66 µM. The TGI (T-47D breast) was 11.5 µM and 21.3 µM, the GI50 (RPMI-8226 leukemia) was 0.815 µM and 1.59 µM and the TGI (RPMI-8226 leukemia) was 4.66 µM and 7.41 µM. The GI50 (SK-MEL-5 melanoma) was 0.331 µM and 2.69 µM, the TGI (SK-MEL-5 melanoma) was 4.53 µM and 14.4 µM and the GI50 (PC-3 prostate) was 4.62 µM and 9.91 µM. For the same compound, the TGI (PC-3 prostate) was 15 µM and 28.7 µM, the GI50 (HT29 colon) was 0.0462 µM and 0.0821 µM and the TGI (HT29 colon) was 4.35 µM and 10.3 µM. The GI50 (MDA-MB-435) was 0.157 µM and 0.171 µM, the TGI (MDA-MB-435) was 6.56 µM and 2.55 µM and the GI50 (UACC-257 melanoma) was 0.0252 µM and 0.139 µM. For the same compound, the TGI (UACC-257 melanoma) was 1.74 µM and 1.27 µM, the GI50 (SF-268 CNS) was 4.7 µM and 12.8 µM and the TGI (SF-268 CNS) was 33.5 µM and 55.7 µM. The GI50 (MCF7 breast) was 0.891 µM and 2.89 µM, the TGI (MCF7 breast) was 4.13 µM and 10.9 µM and the GI50 (SNB-75 CNS) was 5.72 µM and 3.57 µM. The TGI (SNB-75 CNS) was 17 µM and 31 µM, the TGI (BT-549 breast) was 3.28 µM and 13.1 µM and the GI50 (A498 renal) was 4.93 µM and 4.48 µM. The TGI (A498 renal) was 32.3 µM and 67.7 µM, the GI50 (U251 CNS) was 1.8 µM and 11.2 µM and the TGI (U251 CNS) was 6.99 µM and 23.5 µM. For the same compound, the GI50 (NCI-H23 lung) was 0.559 µM, the TGI (NCI-H23 lung) was 4.56 µM and the GI50 (TK-10 renal) was 1.86 µM and 5.29 µM. The TGI (TK-10 renal) was 7.31 µM and 31.1 µM, the GI50 (NCI-H460 lung) was 2.29 µM and 3.34 µM and the TGI (NCI-H460 lung) was 33.5 µM and 17.2 µM. For the same compound, the GI50 (OVCAR-3 ovarian) was 0.991 µM and 2.88 µM, the TGI (OVCAR-3 ovarian) was 7.27 µM and 14.2 µM and the GI50 (NCI/ADR-RES ovarian) was 1.92 µM and 4.11 µM. The TGI (NCI/ADR-RES ovarian) was 9.55 µM and 31.5 µM, the GI50 (ACHN renal) was 0.877 µM and 1.74 µM and the TGI (ACHN renal) was 5.61 µM and 14.4 µM.
